The numbers were not newly measured in patent US8808735B2, “Fast wet-massing method for the preparation of calcium-containing compositions” (Takeda Nycomed AS, priority 2005, dated 2014), which cites them from elsewhere.

The data set has as its system fracture rate. The settings on record: annual injections of 150.000-300.000 IU.

In the case of vitamin D, the overall fracture rate entry is recorded as “significant reduction”.
